Source: publication PMC5869419 (Journal of Natural Products, 2018)
Where two headings read alike, the source gives them in different places.

Tests used:
[1] = tested on: H3N2 influenza virus A/Hong Kong/68 (HK/68); assay: CPE inhibition assay with HK/68 in MDCK cells; type: cell-based; settings: for IC50: Influenza A virus; for selectivity index IAV HK/68 [CC50/IC50]: CC50 in MDCK cells / IC50 HK/68; for anti-influenza virus activity (in words): HK/68 and Jena/8178, CPE inhibition in MDCK cells
[2] = tested on: H1N1 influenza virus A/Jena/8178/09 (Jena/8178); assay: CPE inhibition assay with Jena/8178 in MDCK cells; type: cell-based; settings: for IC50: Influenza A virus, H1N1, MDCK, 48 h, read-out: IC50 of CPE IAV Jena/8178; for selectivity index IAV Jena/8178 [CC50/IC50]: CC50 in MDCK cells / IC50 Jena/8178
[3] = tested on: MDCK cells
[4] = in vitro; settings: dog
[5] = H3N2, MDCK, 48 h, read-out: IC50 of CPE IAV HK/68
[6] = H3N2, HK/68 and Jena/8178 together, CPE inhibition in MDCK cells, read-out: IC50 values, anti-influenza virus activity stated for both strains together
[7] = HK/68 and Jena/8178 together, CPE inhibition in MDCK cells

## CC1(C)C[C@H]2C3=CC[C@@H]4[C@@]5(C)CC[C@H](O)C(C)(C)[C@@H]5CC[C@@]4(C)[C@]3(C)CC[C@@]2(C(=O)O)C[C@H]1OC(=O)/C=C/c1ccccc1 [21-cinnamoyloxy-oleanolic acid]
[1]; [5]
  IC50: 8.9 ± 3.95 µM
[1]; [6]
  IC50: 7 to 11 µM
[2]
  IC50: 6.8 ± 4.12 µM
[3]
  CC50 in MDCK cells: lost their cytotoxicity
[4]
  CC50 at 72 h: > 100 µM

## C=C(C)[C@@H]1CC[C@]2(C(=O)O)CC[C@]3(C)[C@H](CC[C@@H]4[C@@]5(C)C[C@@H](O)[C@H](O)C(C)(C)[C@@H]5CC[C@]43C)[C@@H]12 [alphitolic acid]
[4]
  CC50 at 72 h: 49.9 ± 6.68 µM

## CC1(C)C[C@H]2C3=CC[C@@H]4[C@@]5(C)C[C@@H](O)[C@H](O)C(C)(C)[C@@H]5CC[C@@]4(C)[C@]3(C)CC[C@@]2(C(=O)O)C[C@H]1OC(=O)/C=C/c1ccccc1 [21-cinnamoyloxy-maslinic acid]
[1]; [5]
  IC50: 11.3 ± 7.35 µM
[1]; [6]
  IC50: 7 to 11 µM
[2]
  IC50: 6.9 ± 2.97 µM
[3]
  CC50 in MDCK cells: lost their cytotoxicity
[4]
  CC50 at 72 h: > 100 µM

## C=C(C)[C@@H]1CC[C@]2(C(=O)O)CC[C@]3(CO)[C@H](CC[C@@H]4[C@@]5(C)C[C@@H](O)[C@H](O)C(C)(C)[C@@H]5CC[C@]43C)[C@@H]12 [27-hydroxyalphitolic acid]
[2]
  selectivity index IAV Jena/8178 [CC50/IC50]: >4
  IC50: 26.5 ± 4.71 µM
[4]
  CC50: > 100 µM

## C[C@H]1O[C@@H](O[C@H]2[C@H](O)[C@@H](O[C@@H]3OC[C@@H](O)[C@H](O)[C@H]3O)[C@H](O[C@H]3[C@H](O)C[C@]4(C)[C@H]5CC=C6[C@@H]7CC(C)(C)CC[C@]7(C(=O)O)CC[C@@]6(C)[C@]5(C)CC[C@H]4C3(C)C)O[C@@H]2CO)[C@@H](O)[C@@H](O)[C@@H]1O [Compound 5, 3-O-β-D-Xylopyranosyl-(1→2)-[α-L-rhamnopyranosyl-(1→4)]-β-D-glucopyranosylmaslinic acid]
[1]
  selectivity index IAV HK/68 [CC50/IC50]: 9
[1]; [7]
  IC50 values, anti-influenza virus activity stated for both strains together: low micromolar range
[1]; [5]
  IC50: 1.7 ± 0.07 µM
[4]
  CC50 at 72 h: 15.5 ± 1.69 µM

## CCOC(=O)C1=C[C@@H](OC(CC)CC)[C@H](NC(C)=O)[C@@H](N)C1 [oseltamivir, reference compound]
[1]; [5]
  IC50: 0.003 ± 0.001 µM
[2]
  IC50: 0.064 ± 0.013 µM

## C=C(C)[C@@H]1CC[C@]2(C(=O)O)CC[C@]3(C)[C@H](CC[C@@H]4[C@@]5(C)C[C@@H](O)[C@H](O[C@@H]6O[C@H](CO)[C@@H](O[C@@H]7O[C@H](C)[C@@H](O)[C@H](O)[C@@H]7O)[C@H](O)[C@H]6O[C@@H]6OC[C@@H](O)[C@H](O)[C@H]6O)C(C)(C)[C@@H]5CC[C@]43C)[C@@H]12 [Compound 2, 3-O-β-D-Xylopyranosyl-(1→2)-[α-L-rhamnopyranosyl-(1→4)]-β-D-glucopyranosylalphitolic acid]
[1]
  selectivity index IAV HK/68 [CC50/IC50]: 11
[1]; [5]
  IC50: 1.1 ± 0.44 µM
[2]
  selectivity index IAV Jena/8178 [CC50/IC50]: 6
  IC50: 1.9 ± 0.08 µM
[4]
  CC50 at 72 h: 10.4 ± 0.52 µM

## C[C@H]1O[C@@H](O[C@H]2[C@H](O)[C@@H](O[C@@H]3OC[C@@H](O)[C@H](O)[C@H]3O)[C@H](O[C@H]3[C@H](O)C[C@]4(C)[C@H]5CC=C6[C@@H]7CC(C)(C)[C@H](OC(=O)/C=C/c8ccccc8)C[C@]7(C(=O)O)CC[C@@]6(C)[C@]5(C)CC[C@H]4C3(C)C)O[C@@H]2CO)[C@@H](O)[C@@H](O)[C@@H]1O [Compound 6, 3-O-β-D-Xylopyranosyl-(1→2)-[α-L-rhamnopyranosyl-(1→4)]-β-D-glucopyranosyl-21-cinnamoyloxymaslinic acid]
[1]
  selectivity index IAV HK/68 [CC50/IC50]: 3
[1]; [7]
  IC50 values, anti-influenza virus activity stated for both strains together: low micromolar range
[1]; [5]
  IC50: 1.8 ± 0.23 µM
[2]
  selectivity index IAV Jena/8178 [CC50/IC50]: 3
  IC50: 1.8 ± 0.03 µM
[4]
  CC50 at 72 h: 5.8 ± 0.69 µM

## CC1(C)CC[C@]2(C(=O)O)CC[C@]3(C)C(=CC[C@@H]4[C@@]5(C)C[C@@H](O)[C@H](O)C(C)(C)[C@@H]5CC[C@]43C)[C@@H]2C1 [maslinic acid]
[4]
  CC50 at 72 h: 23.3 ± 2.93 µM

## C=C(C)[C@@H]1CC[C@]2(C(=O)O)CC[C@]3(CO)[C@H](CC[C@@H]4[C@@]5(C)C[C@@H](O)[C@H](O[C@@H]6O[C@H](CO)[C@@H](O)[C@H](O)[C@H]6O[C@@H]6O[C@H](CO)[C@@H](O)[C@H](O)[C@H]6O)C(C)(C)[C@@H]5CC[C@]43C)[C@@H]12 [Compound 4, 3-O-β-D-Glucopyranosyl-(1→2)-β-D-glucopyranosyl-27-hydroxyalphitolic acid]
[1]
  anti-influenza virus activity (in words): only weak or no anti-influenza virus activity
[2]
  selectivity index IAV Jena/8178 [CC50/IC50]: >2
  IC50: 43 ± 11.8 µM
[4]
  CC50: > 100 µM

## C=C(C)[C@@H]1CC[C@]2(C(=O)O)CC[C@]3(C)[C@H](CC[C@@H]4[C@@]5(C)C[C@@H](O)[C@H](O[C@@H]6O[C@H](CO)[C@@H](O)[C@H](O)[C@H]6O[C@@H]6OC[C@@H](O)[C@H](O)[C@H]6O)C(C)(C)[C@@H]5CC[C@]43C)[C@@H]12 [Compound 1, 3-O-β-D-Xylopyranosyl-(1→2)-β-D-glucopyranosylalphitolic acid]
[1]
  anti-influenza virus activity (in words): only weak or no anti-influenza virus activity
[2]
  IC50: 38.6 ± 15.7 µM
[4]
  CC50: > 100 µM

## C[C@H]1O[C@H](O[C@H]2[C@H](O[C@H]3[C@H](O[C@H]4CC[C@]5(C)[C@H]6CC=C7[C@@H]8CC(C)(C)[C@H](OC(=O)/C=C/c9ccccc9)C[C@]8(C(=O)O)CC[C@@]7(C)[C@]6(C)CC[C@H]5C4(C)C)OC[C@@H](O)[C@@H]3O)OC[C@@H](O)[C@@H]2O)[C@@H](O)[C@@H](O)[C@@H]1O [Compound 7, 3-O-α-L-Rhamnopyranosyl-(1→2)-β-D-xylopyranosyl-(1→2)-β-D-xylopyranosyl-21-cinnamoyloxyoleanolic acid]
[1]
  selectivity index IAV HK/68 [CC50/IC50]: 31
[1]; [5]
  IC50: 0.05 ± 0.02 µM
[1]; [6]
  IC50: 0.05 to 0.27 µM
[2]
  selectivity index IAV Jena/8178 [CC50/IC50]: 6
  IC50: 0.27 ± 0.13 µM
[4]
  CC50 at 72 h: 1.5 ± 0.8 µM

## C[C@H]1O[C@H](O[C@@H]2CO[C@@H](O[C@H]3CC[C@]4(C)[C@H]5CC=C6[C@@H]7CC(C)(C)[C@H](OC(=O)/C=C/c8ccccc8)C[C@]7(C(=O)O)CC[C@@]6(C)[C@]5(C)CC[C@H]4C3(C)C)[C@H](O[C@@H]3OC[C@@H](O)[C@H](O)[C@H]3O[C@H]3O[C@H](C)[C@@H](O)[C@H](O)[C@@H]3O)[C@H]2O)[C@@H](O)[C@@H](O)[C@@H]1O [Compound 8, 3-O-α-L-Rhamnopyranosyl-(1 →2)-β-D-xylopyranosyl-(1 →2)-[α-L-rhamnopyranosyl-(1 →4)]-β-D-xylopyranosyl-21-cinnamoyloxyoleanolic acid]
[1]
  selectivity index IAV HK/68 [CC50/IC50]: 7
[1]; [5]
  IC50: 0.17 ± 0.18 µM
[1]; [6]
  IC50: 0.05 to 0.27 µM
[2]
  selectivity index IAV Jena/8178 [CC50/IC50]: 7
  IC50: 0.16 ± 0.07 µM
[4]
  CC50 at 72 h: 1.2 ± 0.1 µM

## C=C(C)[C@@H]1CC[C@]2(C(=O)O)CC[C@]3(CO)[C@H](CC[C@@H]4[C@@]5(C)C[C@@H](O)[C@H](O[C@@H]6O[C@H](CO)[C@@H](O)[C@H](O)[C@H]6O[C@@H]6OC[C@@H](O)[C@H](O)[C@H]6O)C(C)(C)[C@@H]5CC[C@]43C)[C@@H]12 [Compound 3, 3-O-β-D-Xylopyranosyl-(1→2)-β-D-glucopyranosyl-27-hydroxyalphitolic acid]
[1]
  anti-influenza virus activity (in words): only weak or no anti-influenza virus activity
[4]
  CC50: > 100 µM
